The target of data set [1] is T1, Human liver cathepsin B (Homo sapiens, UniProt P07858).
T1 construct: purchased Enzo Life Sciences; host or cells: human liver
The experiment in a line: Cathepsin B cleavage assay. The class given is biochemical. To be noted: for cathepsin B cleavage of FKFL linker and peptide release: RP-HPLC and MS. The method, then:
Human liver cathepsin B (Enzo Life Sciences) was activated for 15 minutes in a solution of 0.158 mg/mL cathepsin B, 20 mM DTT, and 10 mM EDTA at 37° C. Peptide or polymer was then solubilized in reaction buffer (10 mM phosphate, 1 mM EDTA, pH 6.6, 37° C.) and added to the enzyme solution for a final concentration of 1.28 μg/mL cathepsin B and […] peptide/polymer. […] Cleavage of the polymers was also visualized by SDS-PAGE on 8-16% Tris-Glycine Gels (Bio-Rad). For protein gel analyses, reactions were conducted at 3× concentration and 160 μg of polymer was loaded per well.

In data set [2] the test system is caspase 3/7. To be noted: 10 μM, 72 hours. The method, then: Caspase 3/7 activity was measured using a SensoLyte Homogenous AMC Caspase-3/7 Assay Kit (AnaSpec). SKOV3 cells were plated in a black 96-well plate with a clear bottom at a density of 7,000 per well and then treated with polymer (0-10 μM) for 72 hours. Assay reagents were mixed with cell culture medium as per the manufacturer's instructions, incubated for 24 hours, and fluorescence (ex/em=380 nm/500 nm) was measured using a plate reader. Percent caspase 3/7 activity was calculated relative to untreated cell cultures.

The test system of data set [3] is SKOV3 human ovarian cancer cells. The following applies: 10 μM, 72 hours. The procedure: Induction of apoptosis was measured with a FITC Annexin V/Dead Cell Apoptosis Kit (Invitrogen) as per the manufacturer's instructions. SKOV3s cells were plated in 6-well plates at a density of 120,000 cells per well and treated with 10 μM polymer solutions for 72 hours. After 72 hours, cells were trypsinized, rinsed in PBS, centrifuged, stained with FITC-annexin V, and analyzed on a BD LSRII flow cytometer.

Data set [4] can be described thus: Serum stability of peptide macromonomers and polymers. The class given is in vitro ADME, human. To be noted: 37° C., 0 to 12 hours, MALDI-TOF MS.
Description: The stability of the peptide (FKFL) linker in the presence of serum proteases was evaluated by incubating the peptide monomers and polymers in human serum and analyzing the degradation products over time. Peptide (40 mM, DMSO) or polymer (4 mM, PBS) was added to human serum to a final peptide/polymer concentration of 400 μM and incubated at 37° C. At various time points, 40 μL aliquots of the mixture were withdraw and 40 μL of acetonitrile was added to precipitate serum proteins and halt protease degradation. Precipitated solutions were centrifuged at 13,000 rpm for 10 min and supernatants were analyzed by MALDI-TOF MS using a Bruker Autoflex II.
For data set [5] the following is noted: human serum, 37° C., at 120 h.
Description: The drug release studies were conducted at 37° C. and free drug detection was quantified using an elution gradient profile at 277 nm. The studies were conducted with deprotected monomers and polymers.
HPLC was used to quantify drug release by detecting free drug as a function of time normalized to amount of drug present during initial incubation. This in turn was standardized to the total available drug in the system as quantified by dissolving a known amount of polymer in 10% aq. H2SO4 for 48 h at 25° C. Using a Cipro standard curve, the total amount of drug in the polymers was validated against compositional values obtained from ^19F NMR. […]
Absorbance Detector, and Agilent ChemStation software for LC system (Palo Alto, Calif.). […]
Both non-serum (mobile phase:deionized water) and serum standards were subsequently treated with 50% acetonitrile (v/v) to promote protein precipitation. […] Non-serum standards were analysed without the need for centrifugation. […]
The drug release from polymer conjugates was carried out in serum at 37° C. at a polymer concentration of 6 mg/mL. […] Quantification of total Cipro in the polymer conjugates was measured by taking 6 mg/mL of polymer and dissolving it in 10% aq. […] The HPLC with a gradient elution profile was used to quantify amount of drug released using the same instrument parameters set forth for drug standards. […]
In data set [6] the target is butyrylcholinesterase (BChE) (Homo sapiens, UniProt P06276). To be noted: buffer with BChE, relative to buffer alone.
Chain of butyrylcholinesterase (BChE) (P06276 29-602): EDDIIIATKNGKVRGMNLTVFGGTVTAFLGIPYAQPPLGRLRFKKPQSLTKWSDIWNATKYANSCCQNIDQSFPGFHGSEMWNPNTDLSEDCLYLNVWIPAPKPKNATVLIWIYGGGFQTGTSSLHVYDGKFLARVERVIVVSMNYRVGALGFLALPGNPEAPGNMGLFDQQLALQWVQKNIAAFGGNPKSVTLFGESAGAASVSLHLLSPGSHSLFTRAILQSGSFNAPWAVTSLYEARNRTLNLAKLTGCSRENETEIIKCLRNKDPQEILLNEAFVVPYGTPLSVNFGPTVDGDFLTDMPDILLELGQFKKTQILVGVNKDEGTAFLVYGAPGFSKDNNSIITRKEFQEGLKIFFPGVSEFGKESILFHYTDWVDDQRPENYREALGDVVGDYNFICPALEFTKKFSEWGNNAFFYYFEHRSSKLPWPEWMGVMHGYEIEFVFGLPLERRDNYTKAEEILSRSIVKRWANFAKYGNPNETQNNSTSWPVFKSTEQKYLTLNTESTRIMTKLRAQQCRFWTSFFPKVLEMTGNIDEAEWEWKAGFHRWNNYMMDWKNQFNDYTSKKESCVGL
Description: The drug release studies were conducted at 37° C. and free drug detection was quantified using an elution gradient profile at 277 nm.
Recombinant human butyrylcholinesterase (BChE) was obtained from R&D systems.

Square brackets hold non-standard residues; d marks the D form. Peptide text beside a SMILES is read from it. * marks the point of attachment. Methacryloyl = C=C(C)C(=O)*; Ahx = NCCCCCC(=O)O

Regarding “poly[(DEAEMA)-co-(BMA)]-b-[(PEGMA300)-c-(MaAhxFKFLAhxBIM)] [PolBIM]”, in data set [1], the “cathepsin B cleavage of FKFL linker and peptide release” value was “release the desired (2980 Da) peptide product”. The “caspase 3/7 activity relative to untreated cells” value in data set [2] is on record as “more than 8 fold”. The “cells staining positive for annexin V” value in data set [3] was found to be 87%.

Take `C=C(C)C(=O)NCCCCCC(=O)N[C@@H](Cc1ccccc1)C(=O)N[C@@H](CCCCN)C(=O)N[C@@H](Cc1ccccc1)C(=O)N[C@@H](CC(C)C)C(=O)NCCCCCC(=O)N[C@@H](CC(C)C)C(=O)N[C@@H](CCCNC(=N)N)C(=O)N[C@@H](CCSC)C(=O)N[C@@H](CCCNC(=N)N)C(=O)N[C@@H](CCC(=O)O)C(=O)N[C@H](C(=O)N[C@H](C(=O)N[C@@H](CC(=O)O)C(=O)N[C@@H](C)C(=O)N[C@@H](Cc1ccc(O)cc1)C(=O)N[C@@H](CCC(=O)O)C(=O)N[C@@H](CCCNC(=N)N)C(=O)N[C@@H](CCC(N)=O)C(=O)N[C@@H](Cc1ccccc1)C(=O)NCC(=O)N[C@@H](CCC(=O)O)C(=O)N1CCC[C@H]1C(=O)N[C@@H](CC(N)=O)C(=O)N[C@H](C(=O)N[C@@H](Cc1c[nH]c2ccccc12)C(=O)N[C@@H](C)C(N)=O)[C@@H](C)CC)[C@@H](C)CC)[C@@H](C)CC` [MaAhxFKFLAhxScrBIM] ({Methacryloyl-Ahx}-FKFL[Ahx]LRMREIIDAYERQFGEPNIWA-NH2): in data set [1] (by 20 minutes), the “cleavage at the FKFL linker” value was found to be 100%. The “stability of the FKFL linker in human serum” value in data set [4] is “intact peptide monomer (3437 Da) was detectable after 12 hours”.

Turning to “poly[(DEAEMA)-co-(BMA)]-b-[(PEGMA300)-c-(MaAhxFKFLAhxScrBIM)] [PolScrBIM]”, in data set [1], the “cathepsin B cleavage of FKFL linker and peptide release” value is “release the desired (2980 Da) peptide product”. For the same compound, in data set [2], the “caspase 3/7 activity relative to untreated cells” value is given as “no change”. Besides, the “cells staining positive for annexin V” value in data set [3] stood at 15%.

In data set [5], `C=C(C)C(=O)OCCOC(=O)c1cn(C2CC2)c2cc(N3CCN(C(=O)OC(C)(C)C)CC3)c(F)cc2c1=O` [HBC, (hydroxyethyl)methacrylate-boc-ciprofloxacin] registered a drug release of about 50%. Moreover, the “effect of added BChE on ester hydrolysis” value in data set [6] was “increases hydrolysis”.

Turning to “ciprofloxacin-(phenol)methacrylate [CPM]”, in data set [6], the “effect of added BChE on ester hydrolysis” value is “increases hydrolysis”.

Values taken from patent US10709791B2, “Stabilized polymeric carriers for therapeutic agent delivery” (University of Washington, priority 2014, dated 2020).
